The source of these data is patent publication US20250230125A1 (The Board of Regents of The University of Texas System, priority 2022, published 2025).

As usually defined, the inhibition is the percentage by which the read-out fell short of the control.

Data set [1] addresses T1, CYP2B6 (Homo sapiens, UniProt P20813).
T1 sequence (P20813 1-491): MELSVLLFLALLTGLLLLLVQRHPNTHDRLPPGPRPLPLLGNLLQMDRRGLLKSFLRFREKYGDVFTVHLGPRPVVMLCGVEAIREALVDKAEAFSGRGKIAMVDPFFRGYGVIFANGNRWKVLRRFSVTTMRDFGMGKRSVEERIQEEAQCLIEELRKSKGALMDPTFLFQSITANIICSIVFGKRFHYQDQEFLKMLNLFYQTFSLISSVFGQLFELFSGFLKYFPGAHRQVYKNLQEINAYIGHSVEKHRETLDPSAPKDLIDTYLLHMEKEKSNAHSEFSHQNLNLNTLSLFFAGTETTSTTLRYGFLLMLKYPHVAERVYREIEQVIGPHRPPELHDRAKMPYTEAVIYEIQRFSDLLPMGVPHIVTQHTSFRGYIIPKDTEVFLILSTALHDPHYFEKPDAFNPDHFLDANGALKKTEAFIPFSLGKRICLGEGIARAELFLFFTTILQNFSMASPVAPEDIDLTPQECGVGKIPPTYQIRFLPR
The data set is described as follows: in vitro. The settings on record: microsomes.

Data set [2] in a line: Rat liver microsomal intrinsic clearance. The settings on record: rat liver microsomes. The class given is in vitro ADME. For orientation: Microsomes from liver hold many membrane-bound enzymes, among them those of drug oxidation.
Data set [3] concerns the target T2, CYP2C9 (Homo sapiens, UniProt P11712). The data set is described as follows: in vitro. Particulars: microsomes.
The target in data set [4] is T3, CYP2D6 (Homo sapiens, UniProt P10635). Particulars: microsomes, 10 µM.
Data set [5] concerns the target T1, CYP2B6. The settings on record: microsomes, 10 µM.
Data set [6] deals with T4, CYP2C8 (Homo sapiens, UniProt P10632).
T4 sequence (P10632 1-490): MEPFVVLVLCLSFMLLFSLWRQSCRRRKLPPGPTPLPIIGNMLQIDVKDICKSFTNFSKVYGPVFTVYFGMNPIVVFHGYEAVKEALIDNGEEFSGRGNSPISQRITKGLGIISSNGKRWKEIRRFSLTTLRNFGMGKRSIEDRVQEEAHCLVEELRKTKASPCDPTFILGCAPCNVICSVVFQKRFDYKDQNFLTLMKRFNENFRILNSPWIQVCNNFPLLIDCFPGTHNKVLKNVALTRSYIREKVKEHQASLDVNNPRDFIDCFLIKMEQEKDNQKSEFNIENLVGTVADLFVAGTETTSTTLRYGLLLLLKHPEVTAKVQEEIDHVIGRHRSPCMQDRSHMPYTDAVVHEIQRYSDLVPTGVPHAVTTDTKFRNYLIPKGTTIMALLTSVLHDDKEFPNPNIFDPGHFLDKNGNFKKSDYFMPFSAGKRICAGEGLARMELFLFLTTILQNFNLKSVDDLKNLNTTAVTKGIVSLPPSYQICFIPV
The data set is described as follows: in vitro. Particulars: microsomes.

In data set [7] the target is T2, CYP2C9. Particulars: microsomes, 10 µM.
For data set [8], the target named is T3, CYP2D6. Briefly: in vitro. Particulars: microsomes.
The test system of the next data set is hMDRI-MDCKII cells. The data set is described as follows: MDCK-MDR1 membrane permeability and efflux. It is filed as in vitro ADME.
Data set [9] deals with T5, CYP3A4 (Homo sapiens, UniProt P08684). Briefly: in vitro. Particulars: microsomes.
The next data set deals with T6, CYP1A2 (Homo sapiens, UniProt P05177).
T6 sequence (P05177 1-516): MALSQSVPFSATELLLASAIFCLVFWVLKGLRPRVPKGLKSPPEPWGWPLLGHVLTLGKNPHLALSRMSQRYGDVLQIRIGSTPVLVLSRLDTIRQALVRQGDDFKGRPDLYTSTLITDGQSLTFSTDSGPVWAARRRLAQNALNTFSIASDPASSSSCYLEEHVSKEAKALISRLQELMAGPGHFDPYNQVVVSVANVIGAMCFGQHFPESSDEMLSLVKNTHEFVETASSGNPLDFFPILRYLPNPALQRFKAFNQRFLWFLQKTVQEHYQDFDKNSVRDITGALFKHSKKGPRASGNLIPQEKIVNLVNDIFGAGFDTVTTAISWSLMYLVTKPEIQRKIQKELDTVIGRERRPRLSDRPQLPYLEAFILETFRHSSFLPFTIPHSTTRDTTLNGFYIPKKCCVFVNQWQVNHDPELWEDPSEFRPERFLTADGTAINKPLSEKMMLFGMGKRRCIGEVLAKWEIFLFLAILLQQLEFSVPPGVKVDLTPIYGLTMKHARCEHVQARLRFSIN
Briefly: Human liver microsomes P450 inhibition, CYP1A2.

For data set [10], the target named is T7, CYP2C19 (Homo sapiens, UniProt P33261). Briefly: in vitro. The settings on record: microsomes.
For data set [11], the target named is T7, CYP2C19. The settings on record: microsomes, 10 µM.
Another data set addresses T8, 5-HT3 (Homo sapiens, UniProt P46098).
T8 sequence (P46098 24-478): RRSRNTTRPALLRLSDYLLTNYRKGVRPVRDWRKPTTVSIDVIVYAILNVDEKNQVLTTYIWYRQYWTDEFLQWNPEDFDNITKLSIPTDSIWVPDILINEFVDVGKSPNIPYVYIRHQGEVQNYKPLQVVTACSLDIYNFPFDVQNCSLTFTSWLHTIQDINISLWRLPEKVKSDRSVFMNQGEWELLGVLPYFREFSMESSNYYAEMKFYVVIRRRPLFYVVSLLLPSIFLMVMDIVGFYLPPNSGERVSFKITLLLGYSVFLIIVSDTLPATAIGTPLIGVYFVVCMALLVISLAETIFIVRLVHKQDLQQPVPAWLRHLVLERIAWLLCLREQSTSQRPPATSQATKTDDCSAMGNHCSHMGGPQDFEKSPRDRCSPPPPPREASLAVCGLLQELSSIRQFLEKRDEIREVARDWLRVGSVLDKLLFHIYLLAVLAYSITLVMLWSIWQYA
Briefly: NIMH PDSP radioligand binding displacement, 5-HT3. Particulars: radioligand [^3H]-LY278584. The text has this: . To explore the off-target profile of the two compounds, the National Institute of Mental Health (NIMH) Psychoactive Drug Screening Program (PDSP) were utilized to assess in a broad-panel of GPCRs and monoamine transporters (Table 4). […]. [table]

Data set [12] concerns the target T4, CYP2C8. The settings on record: microsomes, 10 µM.
Data set [13] concerns the target T5, CYP3A4. The settings on record: microsomes, 10 µM.

T7 sequence (P33261 whole entry): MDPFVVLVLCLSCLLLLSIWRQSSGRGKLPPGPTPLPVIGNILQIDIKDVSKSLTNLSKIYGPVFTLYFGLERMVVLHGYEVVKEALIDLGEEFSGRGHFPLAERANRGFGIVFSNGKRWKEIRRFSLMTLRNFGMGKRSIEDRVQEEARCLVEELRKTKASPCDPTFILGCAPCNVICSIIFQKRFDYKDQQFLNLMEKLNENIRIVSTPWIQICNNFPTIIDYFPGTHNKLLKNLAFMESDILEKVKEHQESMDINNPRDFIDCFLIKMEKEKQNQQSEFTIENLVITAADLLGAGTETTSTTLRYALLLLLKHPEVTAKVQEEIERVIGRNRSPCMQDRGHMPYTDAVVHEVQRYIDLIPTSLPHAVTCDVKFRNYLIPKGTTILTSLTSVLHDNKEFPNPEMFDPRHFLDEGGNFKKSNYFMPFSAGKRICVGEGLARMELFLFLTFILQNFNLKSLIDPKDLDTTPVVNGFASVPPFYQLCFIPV
T5 sequence (P08684 whole entry): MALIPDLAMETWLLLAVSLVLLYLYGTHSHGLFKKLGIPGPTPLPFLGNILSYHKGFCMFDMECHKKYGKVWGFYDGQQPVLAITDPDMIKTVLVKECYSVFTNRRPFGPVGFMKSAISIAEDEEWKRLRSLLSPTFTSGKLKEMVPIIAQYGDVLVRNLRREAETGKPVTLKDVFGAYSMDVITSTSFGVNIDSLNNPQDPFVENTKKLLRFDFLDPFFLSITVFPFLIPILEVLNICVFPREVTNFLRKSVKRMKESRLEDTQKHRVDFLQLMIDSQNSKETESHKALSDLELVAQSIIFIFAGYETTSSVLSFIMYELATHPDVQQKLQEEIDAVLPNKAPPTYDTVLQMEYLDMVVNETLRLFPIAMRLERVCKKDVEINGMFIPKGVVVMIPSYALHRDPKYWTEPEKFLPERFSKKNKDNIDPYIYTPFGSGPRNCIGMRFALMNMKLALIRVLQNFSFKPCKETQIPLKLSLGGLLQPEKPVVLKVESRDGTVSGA
T3 sequence (P10635 whole entry): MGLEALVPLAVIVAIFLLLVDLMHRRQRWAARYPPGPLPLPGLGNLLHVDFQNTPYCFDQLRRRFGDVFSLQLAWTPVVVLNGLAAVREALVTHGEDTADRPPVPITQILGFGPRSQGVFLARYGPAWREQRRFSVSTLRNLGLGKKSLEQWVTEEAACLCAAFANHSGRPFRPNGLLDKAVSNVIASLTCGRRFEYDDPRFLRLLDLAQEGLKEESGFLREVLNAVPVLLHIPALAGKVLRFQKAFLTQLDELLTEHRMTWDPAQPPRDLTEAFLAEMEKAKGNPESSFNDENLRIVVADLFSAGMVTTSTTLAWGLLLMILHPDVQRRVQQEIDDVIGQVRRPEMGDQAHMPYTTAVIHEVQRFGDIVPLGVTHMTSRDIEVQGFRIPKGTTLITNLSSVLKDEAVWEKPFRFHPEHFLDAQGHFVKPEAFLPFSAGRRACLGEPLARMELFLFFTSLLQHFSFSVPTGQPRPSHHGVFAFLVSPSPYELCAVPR
T2 sequence (P11712 whole entry): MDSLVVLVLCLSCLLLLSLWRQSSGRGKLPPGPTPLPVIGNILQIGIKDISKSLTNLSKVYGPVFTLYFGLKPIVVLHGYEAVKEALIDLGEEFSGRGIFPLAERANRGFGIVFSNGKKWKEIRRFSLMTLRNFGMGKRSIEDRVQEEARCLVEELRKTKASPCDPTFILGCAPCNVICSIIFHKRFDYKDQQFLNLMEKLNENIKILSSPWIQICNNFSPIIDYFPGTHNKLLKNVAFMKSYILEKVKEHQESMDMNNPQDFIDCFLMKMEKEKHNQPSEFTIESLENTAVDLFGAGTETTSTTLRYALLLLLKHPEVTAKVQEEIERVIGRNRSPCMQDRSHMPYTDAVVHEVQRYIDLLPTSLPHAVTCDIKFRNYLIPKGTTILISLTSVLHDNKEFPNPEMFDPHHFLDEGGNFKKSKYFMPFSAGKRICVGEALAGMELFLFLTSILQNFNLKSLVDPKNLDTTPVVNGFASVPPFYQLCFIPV

As for `CCCCCCCC/C=C\CCCCCCCC(=O)NC(CO)(CO)CO` [Compound 13, N-(1,3-dihydroxy-2-(hydroxymethyl)propan-2-yl)], the inhibition at 10 µM against CYP2B6 [1] is > 50%; against CYP2C9 [3], < 20%; at CYP2C8 [6] it was < 20%; against CYP2D6 [8], < 20%; at CYP3A4 [9], < 20%; at CYP1A2 (human, microsomes), < 20%. In addition, the values for the inhibition at 10 µM against CYP2C19 [10] and at 5-HT3 were < 20% and 5.63%, respectively. Also, the “Liver microsomal clearance CLR” value in data set [2] is given as “CLR = 174.66 μL/min/mg”. The “Inhibitory % CYP2D6” value at CYP2D6 [4] is on record as 10.13%. Besides, the “Inhibitory % CYP2B6” value on CYP2B6 [5] came out at 53.31%. Also, the “Inhibitory % CYP2C9” value at CYP2C9 [7] is on record as 21.2%. Besides, the PappB→A result with hMDRI-MDCKII cells (With Pgp inhibitor) was “PappB→A = 4.77 × 10^−6 cm/s”; with hMDRI-MDCKII cells (Without Pgp inhibitor) it was “PappB→A = 3.23 × 10^−6 cm/s”. In addition, the “Inhibitory % CYP1A2” value at CYP1A2 (10 μM, human liver microsomes) came to 3.4%. Moreover, the “Inhibitory % CYP2C19” value at CYP2C19 [11] was determined as 18.34%. For the same compound, the “Inhibitory % CYP2C8” value at CYP2C8 [12] stood at 11.87%. In addition, the “Inhibitory % CYP3A4 (midazolam)” value on CYP3A4 [13] was determined as 18.72%.
